Assay results as given in patent US8580835B2, “Solid forms of a microbiocide” (Syngenta Crop Protection, LLC, priority 2007, dated 2013).

Assays:
Format in all cases: physicochemical
[1] = thermodynamic stability (DSC, solubility tests and other experiments); conditions: compared with modification A
Description: (§1) The resulting change of particle sizes could lead to a change of the stability of the formulated suspension.
Characteristic for modification C is also the thermogram in differential scanning calorimetry (“DSC”) (see FIG. 3). It has an endothermic peak typically in the range from 130° C. to 142° C., but this will depend on purity. For example, crystal modification C in pure form has typically a peak temperature of 141° C. and an endothermic signal typically around 83 J/g. This thermogram is characteristically different from the thermograms of modifications A and B. Modification A has an endothermic peak at about 112° C. and an endothermic signal of 76; modification B has a peak at about 128° C. and a signal of 90 J/g (see PCT/EP2006/00898, FIGS. 5-6). All measurements were carried out on a Metier Toledo 820 DSC in a closed, but not sealed, pan with a heating rate of 10 K/minute. The typical sample quantity is about 5 mg.

[2] = water solubility; conditions: over relevant temperature ranges; compared with modification A
Description: as §1

[3] = storage stability in aqueous suspensions and in solid form under humid conditions; conditions: aqueous suspensions (such as SC-formulations) and storage in solid form under humid conditions; compared with amorphous material or modification I

Compound | thermodynamic stability [1] | water solubility [2] | storage stability [3]
CC(C)C1C2CCC1c1c(NC(=O)c3cn(C)nc3C(F)F)cccc12 (mixture of isomers) [modification C, racemic syn-3-difluoromethyl-1-methyl-1H-pyrazole-4-carboxylic acid (9-isopropyl-1,2,3,4-tetrahydro-1,4-methano-naphthalen-5-yl)-amide] | substantially better thermodynamic stability than modification A | lower than the water solubility of modification A | –
CC(C)C1C2CCC1c1c(NC(=O)c3cn(C)nc3C(F)F)cccc12 (mixture of isomers) [monohydrate in form A, racemic anti-3-difluoromethyl-1-methyl-1H-pyrazole-4-carboxylic acid (9-isopropyl-1,2,3,4-tetrahydro-1,4-methano-naphthalen-5-yl)-amide] | – | – | much more stable under those circumstances compared with amorphous material or with the modification I
